Data from patent publication US7902354B2, “Lapachone compounds and methods of use thereof” (ArQule, Inc., priority 2006, dated 2011).

Columns and labels:
Format in all cases: cell-based
[1] = tested on: DU-145 human prostate carcinoma cells; test: MTS cell viability assay, DU-145 human prostate carcinoma cells; conditions: DU-145, 4 h compound incubation, MTS, read-out: IC50 Values, Cancerous Cells, Prostate DU-145
[2] = tested on: NCM-460 normal colon epithelial cells; test: MTS cell viability assay, NCM-460 normal colon epithelial cells; conditions: for IC50: Homo sapiens, NCM460, NCM-460, 4 h compound incubation, MTS, read-out: IC50 Values, Normal Cells, Colon NCM-460; for Fold Selectivity (NCM-460/DLD1): ratio of IC50 NCM-460 / DLD1
[3] = tested on: A549 human lung carcinoma cells; test: MTS cell viability assay, A549 human lung carcinoma cells; conditions: A549, 4 h compound incubation, MTS, read-out: IC50 Values, Cancerous Cells, Lung A549
[4] = tested on: DLD-1 human colon carcinoma cells; test: MTS cell viability assay, DLD-1 human colon carcinoma cells; conditions: DLD-1, 4 h compound incubation, MTS, read-out: IC50 Values, Cancerous Cells, Colon DLD-1
[5] = tested on: PACA-2 human pancreatic carcinoma cells; test: MTS cell viability assay, PACA-2 human pancreatic carcinoma cells; conditions: PACA-2, 4 h compound incubation, MTS, read-out: IC50 Values, Cancerous Cells, Pancreas PACA-2
[6] = tested on: K-562 human leukemia cells; test: MTS cell viability assay, K-562 human leukemia cells; conditions: K562, K-562, 4 h compound incubation, MTS, read-out: IC50 Values, Cancerous Cells, Leukemia K-562

| Structure (SMILES) | IC50 [1] [µM] | IC50 [2] [µM] | Fold Selectivity (NCM-460/DLD1) [2] | IC50 [3] [µM] | IC50 [4] [µM] | IC50 [5] [µM] | IC50 [6] [µM] |
| --- | --- | --- | --- | --- | --- | --- | --- |
| O=C1C(=O)c2ccccc2C2=C1SCC1(CCN(C(=O)c3cccc(C(F)(F)F)c3)CC1)O2 [Compound 54, 1′-[3-(trifluoromethyl)benzoyl]spiro[naphtho 1,2-b][1,4]oxathiine-2,4′-piperidine-5,6-dione] | 1.91 | 11 | 7.4 | 7.57 | 1.49 | 1.33 | 1.74 |
| O=C1C(=O)c2ccccc2C2=C1SCC1(CCN(C(=O)c3ccncc3)CC1)O2 [Compound 57, 1′-isonicotinoylspiro[naphtho[1,2-b][1,4]oxathiine-2,4′-piperidine]-5,6-dione] | 12.2 | 9.91 | 2.3 | 24.8 | 4.29 | 5.36 | 4.37 |
| Cc1nn(-c2ccccc2)nc1C(=O)N1CCC2(CC1)CSC1=C(O2)c2ccccc2C(=O)C1=O [Compound 58, 1′-[(5-methyl-2-phenyl-2H-1,2,3-triazol-4-yl)carbonyl]spiro[naphtho[1,2-b][1,4]oxathiine-2,4′-piperidine]-5,6-dione] | 12.2 | 79.9 | 5.8 | 42.2 | 13.7 | 11 | 14.2 |
| O=C1C(=O)c2ccccc2C2=C1SCC1(CCN(C(=O)c3cccnc3)CC1)O2 [Compound 59, 1′-(pyridin-3-ylcarbonyl)spiro[naphtho[1,2-b][1,4]oxathiine-2,4′-piperidine]-5,6-dione] | 10.4 | 10.7 | 2.6 | 16.8 | 4.1 | 4.24 | 4.24 |
| Cc1cccc(C(=O)N2CCC3(CC2)CSC2=C(O3)c3ccccc3C(=O)C2=O)c1 [Compound 60, 1′-(3-methylbenzoyl)spiro[naphtho[1,2-b][1,4]oxathiine-2,4′-piperidine]-5,6-dione] | 4.16 | 10.5 | 4.8 | 8.59 | 2.21 | 2.39 | 3.38 |
| CS(=O)(=O)N1CCC2(CC1)CSC1=C(O2)c2ccccc2C(=O)C1=O [Compound 75, 1′-(methylsulfonyl)spiro[naphtho[1,2-b][1,4]oxathiine-2,4′-piperidine]-5,6-dione] | 7.82 | 9.56 | 2.1 | 19.4 | 4.45 | 4.02 | 2.93 |
| O=C1C(=O)c2ccccc2C2=C1SCC1(CCN(S(=O)(=O)c3ccc(Cl)c(Cl)c3)CC1)O2 [Compound 76, 1′-[(3,4-dichlorophenyl)sulfonyl]spiro[naphtho[1,2-b][1,4]oxathiine-2,4′-piperidine]-5,6-dione] | 28 | 100 | 3.7 | > 100 | 27.1 | 14.3 | > 33.3 |
| O=C1C(=O)c2ccccc2C2=C1SCC1(CCN(S(=O)(=O)c3c(Cl)nc4sccn34)CC1)O2 [Compound 77, 1′-[(6-chloroimidazo[2,1-b][1,3]thiazol-5-yl)sulfonyl]spiro[naphtho[1,2-b][1,4]oxathiine-2,4′-piperidine]-5,6-dione] | 49.2 | 76.4 | 3.7 | > 100 | 20.6 | 16.1 | 22.9 |
| O=C1C(=O)c2ccccc2C2=C1SCC1(CCN(S(=O)(=O)c3cccs3)CC1)O2 [Compound 78, 1′-(2-thienylsulfonyl)spiro[naphtho[1,2-b][1,4]oxathiine-2,4′-piperidine]-5,6-dione] | 12.7 | 30 | 2.7 | 46.7 | 11.1 | 11.1 | 14.7 |
| Cn1cnc(S(=O)(=O)N2CCC3(CC2)CSC2=C(O3)c3ccccc3C(=O)C2=O)c1 [Compound 79, 1′-[(1-methyl-1H-imidazol-4-yl)sulfonyl]spiro[naphtho[1,2-b][1,4]oxathiine-2,4′-piperidine]-5,6-dione] | 11.9 | 20.5 | 2.5 | 23.5 | 8.26 | 7.26 | 5.92 |
| Cc1nn(C)c(C)c1S(=O)(=O)N1CCC2(CC1)CSC1=C(O2)c2ccccc2C(=O)C1=O [Compound 80, 1′-[(1,3,5-trimethyl-1H-pyrazol-4-yl)sulfonyl]spiro[naphtho[1,2-b][1,4]oxathiine-2,4′-piperidine]-5,6-dione] | 4.25 | 12.9 | 3.7 | 18.3 | 3.53 | 3.35 | 3.81 |
| Cc1nn(C)c(Cl)c1S(=O)(=O)N1CCC2(CC1)CSC1=C(O2)c2ccccc2C(=O)C1=O [Compound 81, 1′-[(5-chloro-1,3-dimethyl-1H-pyrazol-4-yl)sulfonyl]spiro[naphtho[1,2-b][1,4]oxathiine-2,4′-piperidine]-5,6-dione] | 13.7 | 30.2 | 2.5 | > 100 | 12.3 | 12.1 | 12.3 |
| O=C1C(=O)c2ccccc2C2=C1SCC1(CCN(S(=O)(=O)c3cccc(Cl)c3)CC1)O2 [Compound 82, 1′-[(3-chlorophenyl)sulfonyl]spiro[naphtho[1,2-b][1,4]oxathiine-2,4′-piperidine]-5,6-dione] | 7.88 | 21.1 | 2.4 | 15.3 | 8.88 | 4.59 | 10 |
| O=C1C(=O)c2ccccc2C2=C1SCC1(CCN(C(=O)Nc3ccccc3)CC1)O2 [Compound 84, 5,6-dioxo-N-phenyl-5,6-dihydro-1′H-spiro[naphtho[1,2-b][1,4]oxathiine-2,4′-piperidine]-1′-carboxamide] | 10.3 | 19.1 | 4.1 | 16.9 | 4.69 | 6.38 | 6.83 |
| O=C1C(=O)c2ccccc2C2=C1SCC1(CCN(C(=O)Nc3ccc(F)cc3)CC1)O2 [Compound 85, N-(4-fluorophenyl)-5,6-dioxo-5,6-dihydro-1′H-spiro[naphtho[1,2-b][1,4]oxathiine-2,4′-piperidine]-1′-carboxamide] | 1.88 | 3.31 | 2.6 | 6.38 | 1.29 | 1.14 | 1.32 |
| O=C1C(=O)c2ccccc2C2=C1SCC1(CCN(C(=O)Nc3cccc(C(F)(F)F)c3)CC1)O2 [Compound 86, 5,6-dioxo-N-[3-(trifluoromethyl)phenyl]-5,6-dihydro-1′H-spiro[naphtho[1,2-b][1,4]oxathiine-2,4′-piperidine]-1′-carboxamide] | 1.03 | 10.1 | 6.8 | 3.84 | 1.48 | 1.33 | 2.17 |
| O=C1C(=O)c2ccccc2C2=C1SCC1(CCN(C(=O)Nc3ccc(Cl)c(Cl)c3)CC1)O2 [Compound 87, N-(3,4-dichlorophenyl)-5,6-dioxo-5,6-dihydro-1′H-spiro[naphtho[1,2-b][1,4]oxathiine-2,4′-piperidine]-1′-carboxamide] | 0.888 | 30.5 | 10.0 | 3.31 | 3.04 | 1.34 | 3.11 |
| CN(C)c1ccc(NC(=O)N2CCC3(CC2)CSC2=C(O3)c3ccccc3C(=O)C2=O)cc1 [Compound 88, N-[4-(dimethylamino)phenyl]-5,6-dioxo-5,6-dihydro-1′H-spiro[naphtho[1,2-b][1,4]oxathiine-2,4′-piperidine]-1′-carboxamide] | 4.33 | 6.08 | 4.1 | 13.3 | 1.49 | 1.85 | 2.14 |
| Cc1ccc(NC(=O)N2CCC3(CC2)CSC2=C(O3)c3ccccc3C(=O)C2=O)cn1 [Compound 91, N-(6-methylpyridin-3-yl)-5,6-dioxo-5,6-dihydro-1′H-spiro[naphtho[1,2-b][1,4]oxathiine-2,4′-piperidine]-1′-carboxamide] | 2.87 | 9 | 5.6 | 10.2 | 1.6 | 1.35 | 1.45 |
| O=C1C(=O)c2ccccc2C2=C1SCC1(CCN(C(=O)Oc3ccccc3)CC1)O2 [Compound 92, phenyl 5,6-dioxo-5,6-dihydro-1′H-spiro[naphtho[1,2-b][1,4]oxathiine-2,4′-piperidine]-1′-carboxylate] | 9.11 | 13.1 | 3.3 | 31 | 4.01 | 4.29 | 4.54 |
| CC(C)COC(=O)N1CCC2(CC1)CSC1=C(O2)c2ccccc2C(=O)C1=O [Compound 93, isobutyl 5,6-dioxo-5,6-dihydro-1′H-spiro[naphtho[1,2-b][1,4]oxathiine-2,4′-piperidine]-1′-carboxylate] | 4.25 | 10.8 | 6.4 | 4.87 | 1.68 | 3.55 | 2.46 |
